Assay results taken from patent US20070161691A1, “Modified-protein formation inhibitor” (TOKAI UNIVERSITY, priority 2003, published 2007).

Assay: Absorbability examination, oral administration to rat
Format: in vivo
Details: 50 mg/kg oral
Method: For 4-(5-phenyltetrazol-1-yl methyl)-morpholine (compound 1) and (5-phenyltetrazol-1-yl)methanol (compound 3), their sorbability were examined. Each compounds are suspended in carboxymethyl cellulose in given concentration to prepare sample for oral administration. Then each samples were administered in the ratio of 50 mg/kg to rat using sonde. Five Wister rats (male, 8 weeks aged, closed colony) were used every one group. At one hour, 2 hours, 6 hours and 24 hours after the administration of compound, blood was obtained. The obtained blood samples were immediately cetrifuged at 3000 rpm for 15 minutes to obtain the blood plasma and the concentration of the compound in the specimen was quantitated by HPLC. Briefly, to 100 μL of obtained blood plasma was added to 200 μL of acetonitrile, centrifuged at 12000 rpm for 10 minutes to obtain supernatant, deproteinized and served to HPLC. The measuring condition of HPLC was selected from suitable condition for each compounds to separate and quantify. For example, in case of 4-(5-phenyltetrazol-1-yl methyl)-morpholine (compound 1), separated with reverse-phase C18 column (4.6×250 mm, 5 μm: Waters), and then detected using ultraviolet detector (RF-10A: Shimazu Seisakusho) at 240 nm of wavelength to quantify. In mobile phase, the flow rate is 0.8 mL/min and solvent is water: acetonitrile.

In the case of `c1ccc(-c2nnnn2CN2CCOCC2)cc1` [Compound 1, 4-(5-phenyltetrazol-1-ylmethyl)-morpholine], the “sorbability (plasma concentration after oral administration)” value is reported as “good sorbability”.
